Laboratory results from patent US20260364184A1, “COMPOUND BASED ON OXOISOINDOLINYL-SUBSTITUTED TETRAHYDROPYRIMIDINE-DIONE AND USE THEREOF” (GLUETACS THERAPEUTICS (SHANGHAI) CO., LTD., priority 2023, published 2026).
Like-named read-outs stand apart in the source and are kept apart here. Blank lines part the entries; values can stand above or below the compound they belong to.

Legend:
[1] = system: Human Multiple myeloma cell line (MM.1S); assay: Inhibition of MM.1S cell proliferation (CellTiter luminescent viability); format: cell-based; details: 96 hours, read-out: Inhibitory activity (IC50, nM) on tumor cell proliferation, MM.1S
How it was run: (§1)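 IC50 is fitted from luminescent viability (CellTiter-Meiluncell) curves. Nine-point, 5-fold dilution series (top stock 2000 μM) are added at 0.5 μL per 100 μL medium to cells plated the day before, with growth at 37 °C and 5% CO2.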

[2] = target: T1, IRAK4 (Homo sapiens, UniProt Q9NWZ3); assay: Western blot degradation of IRAK4; format: cell-based; details: hPBMC Cell; 24 hours
T1 construct: expression of target proteins in cells; endogenous in cells
T1 sequence (Q9NWZ3 1-460): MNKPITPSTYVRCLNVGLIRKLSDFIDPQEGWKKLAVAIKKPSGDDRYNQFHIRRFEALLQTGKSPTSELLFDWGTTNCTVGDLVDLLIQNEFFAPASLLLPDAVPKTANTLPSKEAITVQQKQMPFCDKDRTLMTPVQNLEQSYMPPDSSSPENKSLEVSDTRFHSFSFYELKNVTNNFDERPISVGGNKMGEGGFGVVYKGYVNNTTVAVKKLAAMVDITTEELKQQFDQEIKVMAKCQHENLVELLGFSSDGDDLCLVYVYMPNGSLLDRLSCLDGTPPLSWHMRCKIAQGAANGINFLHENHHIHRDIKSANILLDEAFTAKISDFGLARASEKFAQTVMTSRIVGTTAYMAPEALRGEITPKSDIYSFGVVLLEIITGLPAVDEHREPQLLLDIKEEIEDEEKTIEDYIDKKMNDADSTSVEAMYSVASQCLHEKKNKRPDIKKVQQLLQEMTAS
How it was run: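 Compound-treated cells harvested; lysates denatured 5 min at 95 °C, run on SDS-PAGE, blotted to NC membrane, blocked 1 h RT, probed with antibodies. Densitometry vs DMSO → DC50; target normalised to internal control → % remaining, degradation = 1 − remaining.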

[3] = system: Human gastric cancer cell line MGC803; assay: Inhibition of MGC803 tumor cell proliferation (CellTiter luminescent viability); format: cell-based; details: MGC803, 96 hours, read-out: Inhibitory activity (IC50, nM) on tumor cell proliferation, MGC803
Description: (§2) The tumor cells used herein were cultured in a cell culture medium listed in table 3 at 37 °C in an incubator with 5% CO2. Prior to experimentation, all cell lines used were correctly identified by STR profiling, and tested negative for mycoplasma contamination using a mycoplasma detection kit through routine screenings.
(§3) The IC50 values of the compounds of the present disclosure (including the compounds in Table 1, Table 2, and Examples 1-468) were determined using the CellTiter-Meiluncell Luminescent Cell Viability Assay Kit from Dalian Meilun Biotech Co., Ltd. The detailed procedure is as follows: Tumor cells were seeded in 96-well cell culture plates at the densities specified in Table 4. On the following day, the test compounds of the present disclosure were subjected to serial dilution. The dilution can be performed according to one of the following two methods: • (1) The first dilution method: The test compounds of the present disclosure (including the compounds in Table 1, Table 2, and Examples 1-468) were subjected to 5-fold serial dilutions starting from a highest concentration of 2000 μM, resulting in a total of 9 concentrations from high to low (2000, 400, 80, 16, 3.2, 0.64, 0.128, 0.0256, 0.00512 μM). Subsequently, 0.5 μL of the test compound dilution was transferred into the 96-well plate containing the cells, with each well containing 100 μL of cell culture medium. […] Into the 96-well plate, the diluted test compounds and corresponding detection reagents were added, resulting in final test compound concentrations of 500 nM and 10 nM, respectively. The experimental procedure is described below using the diluted 2 μM test compound as an example.
(§4) 0.5 μL of the aforementioned diluted compound of the present disclosure (including the compounds in Table 1, Table 2, and Examples 1-468) was added to the seeded cells in 100 μL of medium, yielding a final test compound concentration of 10 nM. After the cells were treated with the compounds of the present disclosure for a specified period, the cell viability assay reagent was added to the culture medium according to the kit's instructions to determine cell viability. […] All controls were treated using the same procedure as the compounds of the present disclosure. The growth inhibition curves for the compounds of the present disclosure were plotted using Prism GraphPad software, and the IC50 values were calculated therefrom.

[4] = system: Human T lymphocytic leukemia cell line (Jurkat); assay: Inhibition of Jurkat cell proliferation (CellTiter luminescent viability); format: cell-based; details: 96 hours, read-out: Inhibitory activity (IC50, nM) on tumor cell proliferation, Jurkat
[5] = system: Human large cell immunoblastic lymphoma cell line SR; assay: Inhibition of SR cell proliferation (CellTiter luminescent viability); format: cell-based; details: Table IA1, IRAK4 inhibitor-based, 96 hours, read-out: Inhibitory activity (IC50, nM) on tumor cell proliferation, SR
How it was run: as §1

[6] = system: JEKO-1; assay: Inhibition of JEKO-1 cell proliferation (CellTiter luminescent viability); format: cell-based, human; details: JEKO-1, 96 hours, read-out: Inhibitory activity (IC50, nM) on tumor cell proliferation, JEKO-1
Description: as §2, §3, §4

[7] = target: T2, EZH2 (Homo sapiens, UniProt Q15910+Q96SW2); assay: Western blot degradation of EZH2; format: cell-based; details: hPBMC Cell; 24 hours
T2 construct: expression of target proteins in cells; endogenous in cells
Description: Conventional Western blot assay was performed to evaluate the effects of the compounds of the present disclosure on the expression of target proteins in cells.
(1) Cell Seeding and Protein Harvesting: The selected cells were processed according to the cell seeding procedure and protein harvesting procedure in Table II-2.
(2) To the collected supernatant, 5×SDS sample loading buffer was added, followed by denaturation at 95 °C for 5 minutes. The denatured samples were then separated by SDS-PAGE electrophoresis on a polyacrylamide gel. Proteins were transferred to a nitrocellulose membrane (0.45 μm NC membrane), blocked with blocking buffer at room temperature for 1 hour, and subjected to antibody incubation and development procedures according to the antibody manufacturer's instructions (Cell Signaling Technology).
Half-Maximal Degradation Concentration value (the drug concentration required for degrading proteins by 50%, abbreviated as DC50) reads method: comparing the grayscale values of Western blot bands from drug-treated samples with those from blank DMSO-treated controls, and identifying the drug concentration range at which the grayscale value is half that of the DMSO-treated control bands.
DC50 values can be calculated using ImageJ software to measure grayscale values of Western blot bands from drug-treated samples. The concentration-response curve is fitted to estimate the drug concentration corresponding to half the grayscale value.
Target protein remaining (%) refers to the percentage of target protein remaining in cells after treatment with protein degrader compounds.
Calculation method for target protein remaining (%): Use ImageJ software to measure grayscale values of Western blot bands from drug (protein degrader)-treated samples. The grayscale value of drug-treated bands is divided by that of internal control protein bands, and the resulting quotient is normalized to obtain the relative percentage of remaining target protein after protein degrader treatment.
Target protein degradation rate (%)=1−target protein remaining (%).

[8] = system: Human malignant melanoma cell line (A375); assay: Inhibition of A375 cell proliferation (CellTiter luminescent viability); details: A-375, Table III (II1), EZH2 inhibitor-based, 96 hours; for inhibition at 0.01 µM: A375, 10 nM, read-out: Inhibition Rate at 10 nM (%); for inhibition at 0.5 µM: A375, 500 nM, read-out: Inhibition Rate at 500 nM (%)
Description: as §2, §3, §4

[9] = system: Human neuroblastoma cell line (SK-N-AS); assay: Inhibition of SK-N-AS cell proliferation (CellTiter luminescent viability); format: cell-based; details: Table II2, EZH2 inhibitor-based, 96 hours; for inhibition at 0.01 µM: 10 nM, read-out: Inhibition Rate at 10 nM (%); for inhibition at 0.5 µM: 500 nM, read-out: Inhibition Rate at 500 nM (%)
[10] = system: Human non-small cell lung cancer cell line NCI-H1975; assay: Inhibition of H1975 cell proliferation (CellTiter luminescent viability); format: cell-based; details: Table IC1, BTK inhibitor-based; H1975, 96 hours; read-out: Inhibitory activity (IC50, nM) on tumor cell proliferation, H1975
How it was run: as §1

[11] = Inhibition of RPMI-8226 cell proliferation (CellTiter luminescent viability); format: cell-based; details: Homo sapiens; Table IA4, IRAK4 inhibitor-based; RPMI-8226, 10 nM, 96 hours; read-out: Inhibition Rate at 10 nM (%)
[12] = system: Human B-Cell Lymphoma Cells (RPMI-8226); assay: as above; format: cell-based; details: Table IA4, IRAK4 inhibitor-based, RPMI-8226, 500 nM, 96 hours, read-out: Inhibition Rate at 500 nM (%)
[13] = system: Human myeloid monocytic leukemia cell line (MV-4-11); assay: Inhibition of MV-4-11 cell proliferation (CellTiter luminescent viability); format: cell-based; details: Homo sapiens, MV4-11, Table IA3, IRAK4 inhibitor-based, 96 hours
How it was run: as §1

[14] = Table IA1, IRAK4 inhibitor-based
[15] = Table IA1, IRAK4 inhibitor-based compounds

T2 sequence (Q15910 whole entry): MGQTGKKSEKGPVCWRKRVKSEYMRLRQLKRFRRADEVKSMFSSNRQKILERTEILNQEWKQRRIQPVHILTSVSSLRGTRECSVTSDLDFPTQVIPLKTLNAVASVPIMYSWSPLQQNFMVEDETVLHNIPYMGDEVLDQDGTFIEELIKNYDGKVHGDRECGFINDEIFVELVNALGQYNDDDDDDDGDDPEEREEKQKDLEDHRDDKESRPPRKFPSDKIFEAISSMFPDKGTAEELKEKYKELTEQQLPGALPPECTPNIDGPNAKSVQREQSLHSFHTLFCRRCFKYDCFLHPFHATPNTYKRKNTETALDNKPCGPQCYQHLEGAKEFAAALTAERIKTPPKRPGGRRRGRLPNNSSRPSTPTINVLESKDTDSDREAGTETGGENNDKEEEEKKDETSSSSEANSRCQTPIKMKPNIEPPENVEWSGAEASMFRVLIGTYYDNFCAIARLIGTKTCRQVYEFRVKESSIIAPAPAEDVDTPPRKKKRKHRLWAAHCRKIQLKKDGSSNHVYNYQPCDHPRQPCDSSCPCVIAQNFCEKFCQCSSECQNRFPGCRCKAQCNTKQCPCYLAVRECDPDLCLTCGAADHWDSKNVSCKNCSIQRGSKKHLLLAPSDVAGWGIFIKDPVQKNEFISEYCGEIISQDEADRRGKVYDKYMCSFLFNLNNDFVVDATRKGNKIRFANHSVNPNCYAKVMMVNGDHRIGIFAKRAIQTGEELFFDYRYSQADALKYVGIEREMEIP
T2 sequence (O75530 whole entry partner): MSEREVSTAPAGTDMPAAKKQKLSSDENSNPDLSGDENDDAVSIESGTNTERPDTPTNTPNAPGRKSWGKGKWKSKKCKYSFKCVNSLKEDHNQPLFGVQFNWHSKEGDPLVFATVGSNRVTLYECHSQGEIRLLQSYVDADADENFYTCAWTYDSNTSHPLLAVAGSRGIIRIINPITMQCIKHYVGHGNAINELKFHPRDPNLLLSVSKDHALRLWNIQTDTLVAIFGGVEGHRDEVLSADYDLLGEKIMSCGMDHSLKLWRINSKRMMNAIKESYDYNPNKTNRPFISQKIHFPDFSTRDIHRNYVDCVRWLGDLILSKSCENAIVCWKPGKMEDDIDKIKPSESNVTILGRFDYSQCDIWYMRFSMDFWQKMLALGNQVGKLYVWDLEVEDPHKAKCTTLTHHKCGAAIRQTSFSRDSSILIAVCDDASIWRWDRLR
T2 sequence (Q15022 whole entry partner): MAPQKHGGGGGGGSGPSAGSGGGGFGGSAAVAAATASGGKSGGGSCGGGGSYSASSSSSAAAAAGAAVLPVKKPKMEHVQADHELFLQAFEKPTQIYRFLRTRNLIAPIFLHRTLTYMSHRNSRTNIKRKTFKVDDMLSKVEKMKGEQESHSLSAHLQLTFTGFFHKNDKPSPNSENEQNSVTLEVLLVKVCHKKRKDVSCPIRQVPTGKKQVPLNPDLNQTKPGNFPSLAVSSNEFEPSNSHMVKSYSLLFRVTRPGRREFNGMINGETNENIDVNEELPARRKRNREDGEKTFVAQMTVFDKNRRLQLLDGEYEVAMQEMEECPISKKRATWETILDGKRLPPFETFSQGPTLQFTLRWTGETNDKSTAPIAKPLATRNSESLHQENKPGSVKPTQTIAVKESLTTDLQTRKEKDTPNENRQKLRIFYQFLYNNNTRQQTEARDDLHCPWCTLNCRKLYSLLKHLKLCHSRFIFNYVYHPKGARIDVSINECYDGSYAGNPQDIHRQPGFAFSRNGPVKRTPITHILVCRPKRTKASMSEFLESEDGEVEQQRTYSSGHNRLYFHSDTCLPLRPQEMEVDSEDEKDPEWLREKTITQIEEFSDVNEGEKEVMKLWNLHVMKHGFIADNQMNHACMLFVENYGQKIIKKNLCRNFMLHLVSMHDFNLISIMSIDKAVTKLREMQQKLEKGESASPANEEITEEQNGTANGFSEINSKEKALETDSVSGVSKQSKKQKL
T2 sequence (Q96SW2 whole entry): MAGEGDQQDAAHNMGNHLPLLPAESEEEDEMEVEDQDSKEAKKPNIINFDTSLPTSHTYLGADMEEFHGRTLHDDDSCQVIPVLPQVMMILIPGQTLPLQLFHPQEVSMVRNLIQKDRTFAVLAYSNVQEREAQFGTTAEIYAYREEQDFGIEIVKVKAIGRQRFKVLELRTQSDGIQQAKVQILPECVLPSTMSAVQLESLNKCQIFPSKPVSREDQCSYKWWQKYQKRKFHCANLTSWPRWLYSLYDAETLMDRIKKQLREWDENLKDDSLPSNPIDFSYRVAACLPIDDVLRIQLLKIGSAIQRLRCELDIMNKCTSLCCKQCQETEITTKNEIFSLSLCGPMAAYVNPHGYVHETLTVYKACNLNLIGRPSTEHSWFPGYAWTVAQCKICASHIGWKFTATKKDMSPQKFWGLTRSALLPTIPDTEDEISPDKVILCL
T2 sequence (Q16531 whole entry partner): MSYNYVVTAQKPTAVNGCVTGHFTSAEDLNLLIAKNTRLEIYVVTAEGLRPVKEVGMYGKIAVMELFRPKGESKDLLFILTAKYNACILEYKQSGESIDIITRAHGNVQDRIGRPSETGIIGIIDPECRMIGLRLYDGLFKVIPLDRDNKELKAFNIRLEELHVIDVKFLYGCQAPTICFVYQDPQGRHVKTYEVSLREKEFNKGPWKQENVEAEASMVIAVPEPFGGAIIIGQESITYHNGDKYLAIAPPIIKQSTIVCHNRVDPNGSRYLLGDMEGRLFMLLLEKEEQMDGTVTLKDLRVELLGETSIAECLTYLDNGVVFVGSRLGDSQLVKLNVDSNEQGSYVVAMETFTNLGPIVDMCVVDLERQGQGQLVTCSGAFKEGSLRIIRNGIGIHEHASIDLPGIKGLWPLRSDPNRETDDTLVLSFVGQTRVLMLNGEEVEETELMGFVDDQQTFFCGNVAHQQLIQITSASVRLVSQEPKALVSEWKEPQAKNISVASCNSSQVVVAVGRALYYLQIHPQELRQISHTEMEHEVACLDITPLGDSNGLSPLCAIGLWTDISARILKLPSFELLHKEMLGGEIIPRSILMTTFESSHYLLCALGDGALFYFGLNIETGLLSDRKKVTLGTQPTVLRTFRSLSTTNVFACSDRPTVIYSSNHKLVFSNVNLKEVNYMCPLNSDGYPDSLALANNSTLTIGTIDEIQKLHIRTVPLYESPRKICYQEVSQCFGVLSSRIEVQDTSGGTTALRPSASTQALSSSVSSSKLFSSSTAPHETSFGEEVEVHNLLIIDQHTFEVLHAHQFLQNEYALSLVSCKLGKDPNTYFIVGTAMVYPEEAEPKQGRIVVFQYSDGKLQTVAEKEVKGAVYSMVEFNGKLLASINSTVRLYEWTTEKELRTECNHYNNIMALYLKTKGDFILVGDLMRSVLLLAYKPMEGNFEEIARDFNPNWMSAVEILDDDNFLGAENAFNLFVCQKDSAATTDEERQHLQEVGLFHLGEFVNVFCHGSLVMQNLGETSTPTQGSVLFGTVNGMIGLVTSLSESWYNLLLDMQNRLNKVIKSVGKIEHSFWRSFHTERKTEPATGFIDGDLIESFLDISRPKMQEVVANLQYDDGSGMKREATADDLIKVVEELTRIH

IC50 ([1]; Table IC1, BTK inhibitor-based): > 10000 nM
IC50 ([3]; Table IC1, BTK inhibitor-based): > 10000 nM
IC50 ([4]; Table IC1, BTK inhibitor-based): > 10000 nM
IC50 [10]: > 10000 nM
Structure (SMILES): C=CC(=O)N1CCC(c2ccc(C(N)=O)c(-c3ccc(Oc4ccccc4)cc3)n2)CC1 [Orelabrutinib, reference compound]
IC50 ([6]; Table IC1, BTK inhibitor-based): > 10000 nM

IC50 [1, 14]: > 10000 nM
IC50 [3, 15]: 5000 to 10000 nM
IC50 [4, 14]: 5000 to 10000 nM
IC50 [5]: 1000 to 5000 nM
Structure (SMILES): CC[C@@H]1[C@H](F)C(=O)N[C@@H]1COc1nccc2cc(C(N)=O)c(OC)cc12 [PF06650833, PF-06650833, reference compound]
inhibition at 0.01 µM [11]: 0 to 5%
inhibition at 0.5 µM [12]: 10 to 15%
IC50 [6, 14]: 500 to 1000 nM
inhibition at 0.01 µM ([13]; MV-4-11, 10 nM, read-out: Inhibition Rate at 10 nM (%)): 20 to 36%
inhibition at 0.5 µM ([13]; MV-4-11, 500 nM, read-out: Inhibition Rate at 500 nM (%)): 20 to 36%

The remaining lines, values behind:

Structure (SMILES): O=C1CCN(N2Cc3cc(CN4CCC(N5CCN(c6ccc7c(c6)nc(NC(=O)c6cccc(C(F)(F)F)c6)n7[C@H]6CC[C@@H](CO)CC6)CC5)CC4)ccc3C2=O)C(=O)N1 [GT-05019, N-(5-(4-(1-((2-(2,4-dioxotetrahydropyrimidin-1(2H)-yl)-1-oxoisoindolin-5-yl)methyl)piperidin-4-yl)piperazin-1-yl)-1-((1s,4s)-4-(hydroxymethyl)cyclohexyl)-1H-benzo[d]imidazol-2-yl)-3-(trifluoromethyl)benzamide]
IC50 [1, 14]: 500 to 1000 nM
Degradation of substrate protein IRAK4 (substrate protein remaining %) [2]: A (0%≤substrate protein remaining %≤80%)
IC50 [3, 15]: 500 to 1000 nM
IC50 [4, 14]: 500 to 1000 nM
IC50 [5]: 500 to 1000 nM
IC50 [6, 14]: 500 to 1000 nM

Structure (SMILES): CCCc1cc(C)[nH]c(=O)c1CNC(=O)c1cc(-c2ccc(N3CCC(N(C)Cc4ccc5c(c4)C(=O)N(N4CCC(=O)NC4=O)C5=O)CC3)nc2)cc2c1cnn2C(C)C [GT-08421, 6-(6-(4-(((2-(2,4-dioxotetrahydropyrimidin-1(2H)-yl)-1,3-dioxoisoindolin-5-yl)methyl)(methyl)amino)piperidin-1-yl)pyridin-3-yl)-1-isopropyl-N-((6-methyl-2-oxo-4-propyl-1,2-dihydropyridin-3-yl)methyl)-1H-indazole-4-carboxamide]
Degradation of substrate protein EZH2 (substrate protein remaining %) [7]: A (0%≤substrate protein remaining %≤80%)
inhibition at 0.01 µM [8]: 15 to 20%
inhibition at 0.5 µM [8]: 20 to 30%
inhibition at 0.01 µM [9]: 20 to 30%
inhibition at 0.5 µM [9]: 20 to 30%

Structure (SMILES): O=C1CCN(N2Cc3cc(CN4CCN(c5ccc6c(c5)nc(NC(=O)c5cccc(C(F)(F)F)c5)n6[C@H]5CC[C@@H](CO)CC5)CC4)ccc3C2=O)C(=O)N1 [GT-04949, N-(5-(4-((2-(2,4-dioxotetrahydropyrimidin-1(2H)-yl)-1-oxoisoindolin-5-yl)methyl)piperazin-1-yl)-1-((1s,4s)-4-(hydroxymethyl)cyclohexyl)-1H-benzo[d]imidazol-2-yl)-3-(trifluoromethyl)benzamide]
IC50 [1, 14]: 100 to 300 nM
IC50 [3, 15]: 500 to 1000 nM
IC50 [4, 14]: 500 to 1000 nM
IC50 [5]: 100 to 300 nM
IC50 [6, 14]: 100 to 300 nM

Structure (SMILES): C=CC(=O)N1CCC[C@@H](n2nc(-c3ccc(Oc4ccccc4)cc3)c3c(N)ncnc32)C1 [ibrutinib, Ibrutinib, reference compound]
IC50 ([1]; Table IC1, BTK inhibitor-based): > 10000 nM
IC50 ([3]; Table IC1, BTK inhibitor-based): > 10000 nM
IC50 ([4]; Table IC1, BTK inhibitor-based): > 10000 nM
IC50 [10]: 1000 to 5000 nM
IC50 ([6]; Table IC1, BTK inhibitor-based): > 10000 nM

Structure (SMILES): CCCc1cc(C)[nH]c(=O)c1CNC(=O)c1cc(-c2ccc(N3CCN(C4CCN(Cc5ccc6c(c5)C(=O)N(N5CCC(=O)NC5=O)C6=O)CC4)CC3)nc2)cc2c1cnn2C(C)C [GT-08423, 6-(6-(4-(1-((2-(2,4-dioxotetrahydropyrimidin-1(2H)-yl)-1,3-dioxoisoindolin-5-yl)methyl)piperidin-4-yl)piperazin-1-yl)pyridin-3-yl)-1-isopropyl-N-((6-methyl-2-oxo-4-propyl-1,2-dihydropyridin-3-yl)methyl)-1H-indazole-4-carboxamide]
Degradation of substrate protein EZH2 (substrate protein remaining %) [7]: A (0%≤substrate protein remaining %≤80%)
inhibition at 0.01 µM [8]: 20 to 30%
inhibition at 0.5 µM [8]: 30 to 40%
inhibition at 0.01 µM [9]: 20 to 30%
inhibition at 0.5 µM [9]: 40 to 50%
